Source: ChEMBL document CHEMBL6127018, “Molecular design and evaluation of aza-polycyclic carbamoyl pyridones as HIV-1 integrase strand transfer inhibitors” (Bioorg Med Chem Lett, 2024)

Key:
[1] = system: Human immunodeficiency virus 1; assay: Antiviral activity against HIV-1 infected in human MT4 cells; format: functional, organism-based; conditions: Human immunodeficiency virus 1, MT4
[2] = Cytotoxicity against human MT4 cells; format: toxicity, cell-based
[3] = Selectivity ratio of PAEC50 for antiviral activity against HIV-1 infected in human MT4 cells in presence of human serum albumin to EC50 for antiviral activity against HIV-1 infected in human MT4 cells; format: functional, Human immunodeficiency virus 1
[4] = system: Human immunodeficiency virus 1; assay: Antiviral activity against HIV-1 harboring raltegravir resistant Q148H mutant infected in human HeLa-CD4 cells assessed as fold change; format: functional
[5] = target: Human immunodeficiency virus type 1 integrase (Human immunodeficiency virus 1, UniProt Q7ZJM1); assay: Inhibition of recombinant HIV-1 integrase by microtiter plate integration assay
Sequence of Human immunodeficiency virus type 1 integrase (Q7ZJM1 whole entry): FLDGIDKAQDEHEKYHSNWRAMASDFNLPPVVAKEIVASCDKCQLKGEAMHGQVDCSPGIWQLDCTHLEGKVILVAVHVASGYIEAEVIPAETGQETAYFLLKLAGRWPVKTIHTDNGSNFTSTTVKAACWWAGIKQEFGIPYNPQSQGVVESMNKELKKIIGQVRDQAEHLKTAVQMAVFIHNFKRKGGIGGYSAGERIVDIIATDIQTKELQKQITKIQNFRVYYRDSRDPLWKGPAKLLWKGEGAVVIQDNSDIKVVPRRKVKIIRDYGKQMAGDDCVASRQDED

[6] = Free fraction in rat serum at 5 mg/kg, po or 1 mg/kg, iv; format: ADME, organism-based
[7] = Half-life in rat at 1 mg/kg, iv; format: ADME, organism-based; conditions: in vivo
[8] = Oral bioavailability in cynomolgus monkey at 5 mg/kg; format: ADME, organism-based, Macaca fascicularis; conditions: in vivo
[9] = Cmax in rat at 5 mg/kg, po or 1 mg/kg, iv; format: ADME, organism-based; conditions: in vivo
[10] = Cmax in cynomolgus monkey at 5 mg/kg, po or 1 mg/kg, iv; format: ADME, organism-based, Macaca fascicularis; conditions: in vivo
[11] = Half-life in cynomolgus monkey at 1 mg/kg, iv; format: ADME, organism-based, Macaca fascicularis; conditions: in vivo
[12] = Free fraction in cynomolgus monkey serum at 5 mg/kg, po or 1 mg/kg, iv; format: ADME, organism-based, Macaca fascicularis
[13] = Oral bioavailability in rat at 5 mg/kg; format: ADME, organism-based; conditions: in vivo

| SMILES | EC50 [1] [nM] | CC50 [2] [nM] | Selectivity ratio [3] | fold change (FC) [4] | IC50 [5] [nM] | fraction unbound [6] | half-life [7] [h] | bioavailability [8] [%] | Cmax [9] [ng/mL] | Cmax [10] [ng/mL] | half-life [11] [h] | fraction unbound [12] | bioavailability [13] [%] |
| --- | --- | --- | --- | --- | --- | --- | --- | --- | --- | --- | --- | --- | --- |
| CN1CN(Cc2ccc(F)cc2)C(=O)c2c(O)c(=O)c(C(=O)NCc3ccc(F)cc3F)cn21 | 1.7 | > 50000 | 25 | 0.51 | 4.5 | – | – | – | – | – | – | – | – |
| CN1Cn2cc(C(=O)NCc3ccc(F)cc3F)c(=O)c(O)c2C(=O)N1 | 29 | > 50000 | 8.4 | – | 4.5 | – | – | – | – | – | – | – | – |
| CN1NCn2cc(C(=O)NCc3ccc(F)cc3F)c(=O)c(O)c2C1=O | 3.9 | 34000 | 12 | – | 4.8 | – | – | – | – | – | – | – | – |
| CCN1Cn2cc(C(=O)NCc3ccc(F)cc3F)c(=O)c(O)c2C(=O)N1 | 11 | > 50000 | 44 | – | 4.5 | – | – | – | – | – | – | – | – |
| COCCN1CN(C)n2cc(C(=O)NCc3ccc(F)cc3F)c(=O)c(O)c2C1=O | 0.83 | 13000 | 18 | 0.81 | 4.8 | – | – | – | – | – | – | – | – |
| CN1CN(C[C@@H]2CCCO2)C(=O)c2c(O)c(=O)c(C(=O)NCc3ccc(F)cc3F)cn21 | 1.3 | 14000 | 13 | 1 | 4.7 | – | – | – | – | – | – | – | – |
| COCCN1CN(C)n2cc(C(=O)NCc3ccc(F)cc3F)c(=O)c([O-])c2C1=O.[Na+] | – | – | – | – | – | 0.0011 | 14.3 | 31 | 18000 | 1700 | 4.8 | 0.0072 | 46 |
| O=C(NCc1ccc(F)cc1F)c1cn2c(c(O)c1=O)C(=O)N1CCOCCN1C2 | 4.6 | 32000 | 20 | – | 8.7 | – | – | – | – | – | – | – | – |
| CC(=O)NCCN1Cn2cc(C(=O)NCc3ccc(F)cc3F)c(=O)c(O)c2C(=O)N1C | 120 | > 50000 | 2.8 | – | 9 | – | – | – | – | – | – | – | – |
| O=C(NCc1ccc(F)cc1F)c1cn2c(c([O-])c1=O)C(=O)N1CCCN1C2.[Na+] | – | – | – | – | – | 0.0002 | 27.5 | 6.4 | 6390 | 345 | 3.7 | 0.0052 | 13 |
| O=C(NCc1ccc(F)cc1F)c1cn2c(c(O)c1=O)C(=O)N1CCCCCN1C2 | 3.5 | 17000 | 400 | – | 6.2 | – | – | – | – | – | – | – | – |
| CN1Cn2cc(C(=O)NCc3ccc(F)cc3F)c(=O)c([O-])c2C(=O)N1C.[Na+] | 2.4 | > 50000 | 52 | – | 3.7 | – | – | – | – | – | – | – | – |
| CC(C)N1NCn2cc(C(=O)NCc3ccc(F)cc3F)c(=O)c(O)c2C1=O | 1.7 | 15000 | 34 | – | 4.3 | – | – | – | – | – | – | – | – |
| CN1CN(Cc2cccs2)C(=O)c2c(O)c(=O)c(C(=O)NCc3ccc(F)cc3F)cn21 | 1.7 | > 50000 | 96 | 0.72 | 4.5 | – | – | – | – | – | – | – | – |
| O=C(NCc1ccc(F)cc1)c1cn2c(c(O)c1=O)C(=O)N1CCCCN1C2 | 1.8 | 23000 | 215 | – | 4.5 | – | – | – | – | – | – | – | – |
| O=C(NCc1ccc(F)cc1)c1cn2c(c(O)c1=O)C(=O)N1CCCN1C2 | 3.6 | 41000 | 9.1 | – | 5.2 | – | – | – | – | – | – | – | – |
| COCCN1CN(CC(C)C)n2cc(C(=O)NCc3ccc(F)cc3F)c(=O)c(O)c2C1=O | 3.5 | 13000 | 620 | 0.6 | 6.1 | – | – | – | – | – | – | – | – |
| CCN1CN(CCOC)C(=O)c2c(O)c(=O)c(C(=O)NCc3ccc(F)cc3F)cn21 | 1.3 | 8500 | 110 | 0.73 | 4.9 | – | – | – | – | – | – | – | – |
| COCCN1CN(Cc2ccccc2)n2cc(C(=O)NCc3ccc(F)cc3F)c(=O)c(O)c2C1=O | 1.9 | 5000 | 17 | 1.1 | 3.5 | – | – | – | – | – | – | – | – |
| CN1CN(C[C@H]2CCCO2)C(=O)c2c(O)c(=O)c(C(=O)NCc3ccc(F)cc3F)cn21 | 1.4 | 9800 | 23 | 1.5 | 4.2 | – | – | – | – | – | – | – | – |

| SMILES | EC50 [1] [nM] | CC50 [2] [nM] | Selectivity ratio [3] | fold change (FC) [4] | IC50 [5] [nM] | fraction unbound [6] | half-life [7] [h] | bioavailability [8] [%] | Cmax [9] [ng/mL] | Cmax [10] [ng/mL] | half-life [11] [h] | fraction unbound [12] | bioavailability [13] [%] |
| --- | --- | --- | --- | --- | --- | --- | --- | --- | --- | --- | --- | --- | --- |
| COCCN1C(=O)c2c(O)c(=O)c(C(=O)NCc3ccc(F)cc3F)cn2CN1C | 1.4 | 18000 | 24 | 1.7 | 4.5 | – | – | – | – | – | – | – | – |
| CN1CN(CC2CC2)C(=O)c2c(O)c(=O)c(C(=O)NCc3ccc(F)cc3F)cn21 | 1.3 | 13000 | 360 | 0.85 | 4 | – | – | – | – | – | – | – | – |
| COCCN1CN(CC(=O)N(C)C)n2cc(C(=O)NCc3ccc(F)cc3F)c(=O)c(O)c2C1=O | 15 | 38000 | 5 | 0.9 | 5.1 | – | – | – | – | – | – | – | – |
| COCCCN1CN(C)n2cc(C(=O)NCc3ccc(F)cc3F)c(=O)c(O)c2C1=O | 1.3 | 18000 | 11 | 0.93 | 5.6 | – | – | – | – | – | – | – | – |
| COCCN1CN(CCO)n2cc(C(=O)NCc3ccc(F)cc3F)c(=O)c(O)c2C1=O | 9.4 | 28000 | 13 | 0.7 | 5.4 | – | – | – | – | – | – | – | – |
| CN(C)CCN1CN(C)n2cc(C(=O)NCc3ccc(F)cc3F)c(=O)c(O)c2C1=O | 4.8 | 12000 | 2.2 | 5 | 11 | – | – | – | – | – | – | – | – |
| COCCN1CN(Cc2cccnc2)n2cc(C(=O)NCc3ccc(F)cc3F)c(=O)c(O)c2C1=O | 3.2 | 8100 | 3.3 | 1.4 | 6.9 | – | – | – | – | – | – | – | – |
| COCCN1CN(Cc2ccccn2)n2cc(C(=O)NCc3ccc(F)cc3F)c(=O)c(O)c2C1=O | 2.4 | 7000 | 4.7 | 1.2 | 9.1 | – | – | – | – | – | – | – | – |
| CN1C(=O)c2c(O)c(=O)c(C(=O)NCc3ccc(F)cc3F)cn2CN1CCO | 20 | > 50000 | 3.1 | – | 4.7 | – | – | – | – | – | – | – | – |
| C[C@@H]1CCO[C@H]2Cn3cc(C(=O)NCc4ccc(F)cc4F)c(=O)c([O-])c3C(=O)N12.[Na+] [DOLUTEGRAVIR SODIUM] | – | – | – | – | – | 0.0008 | 6.2 | – | 10700 | 817 | 6 | 0.0058 | 33 |
| CC(C)N1CN(C)n2cc(C(=O)NCc3ccc(F)cc3F)c(=O)c(O)c2C1=O | 1.3 | 3900 | 230 | 0.64 | 5.3 | – | – | – | – | – | – | – | – |
| O=C(NCc1ccc(F)cc1F)c1cn2c(c(O)c1=O)C(=O)N1CCCN1C2 | 2.2 | > 50000 | 12 | – | 3.4 | – | – | – | – | – | – | – | – |
| COCCN1C(=O)c2c([O-])c(=O)c(C(=O)NCc3ccc(F)cc3F)cn2CN1C.[Na+] | – | – | – | – | – | 0.0014 | 21.9 | 6.1 | 9330 | 385 | 3.1 | 0.0118 | 21 |
| COCCN1CN(C(c2ccccc2)c2ccccc2)n2cc(C(=O)NCc3ccc(F)cc3F)c(=O)c(O)c2C1=O | 57000 | – | – | – | – | – | – | – | – | – | – | – | – |
| COCCN1Cn2cc(C(=O)NCc3ccc(F)cc3F)c(=O)c(O)c2C(=O)N1C | 1.6 | 15000 | 14 | 2.3 | 4.4 | – | – | – | – | – | – | – | – |
| CN1Cn2cc(C(=O)NCc3ccc(F)cc3F)c(=O)c(O)c2C(=O)N1CCO | 15 | > 50000 | 18 | – | 4.9 | – | – | – | – | – | – | – | – |
| CN1CN(C2CC2)C(=O)c2c(O)c(=O)c(C(=O)NCc3ccc(F)cc3F)cn21 | 2 | 12000 | 1000 | 1.5 | 4.7 | – | – | – | – | – | – | – | – |
| CCN(CC)CCN1CN(CCOC)C(=O)c2c(O)c(=O)c(C(=O)NCc3ccc(F)cc3F)cn21 | 13 | 11000 | 1.4 | 2.3 | 22 | – | – | – | – | – | – | – | – |
| C[C@@H]1CCO[C@H]2Cn3cc(C(=O)NCc4ccc(F)cc4F)c(=O)c(O)c3C(=O)N12 [DOLUTEGRAVIR] | 2.1 | 15000 | – | 0.74 | – | – | – | – | – | – | – | – | – |
| CN1CN(Cc2ccco2)C(=O)c2c(O)c(=O)c(C(=O)NCc3ccc(F)cc3F)cn21 | 1.5 | > 50000 | 89 | 0.77 | 5.7 | – | – | – | – | – | – | – | – |
